Where two headings read alike, the source gives them in different places.
Target: T1, Full-length (FL)-PRMT5-MEP50 enzyme complex (Homo sapiens, UniProt O14744)
T1 construct: Full-length (FL)-PRMT5-MEP50 enzyme complex (recombinant proteins from baculovirus-transfected Sf21 cells: FL-PRMT5; MW=73837 kDa and FL-MEP50; MW=38614); made in house; host or cells: baculovirus-transfected Sf21 insect cells
Assay: PRMT5-MEP50 Enzyme Methylation Assay
Assay type: biochemical
Conditions: 1.0 nM PRMT5-MEP50, 75 nM biotinylated peptide, 15 μM SAM
How it was run: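 Compound was pre-incubated 60 min at 37°C with 1.0 nM enzyme and 15 μM SAM (final) in 50 mM Bicine pH 8.0, then 75 nM biotinylated H4R3(Me1) peptide was added and reacted 150 min; twenty-point 1:2 titration from 100000 nM, 1% DMSO. Formic acid quench; SAMDI mass spectrometry measured Me1-to-Me2 conversion, EC50 by 4- or 7-parameter regression.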

[1] = one EC50: 4 parameters single site sigmoidal model, EC50 1: first value of 7 parameters biphasic model, read-out: Enzyme Methylation Assay (EC50 or EC50 1)
[2] = second EC50 of 7 parameters biphasic model, read-out: Enzyme Methylation Assay (EC50 2)

T1 sequence (O14744 whole entry): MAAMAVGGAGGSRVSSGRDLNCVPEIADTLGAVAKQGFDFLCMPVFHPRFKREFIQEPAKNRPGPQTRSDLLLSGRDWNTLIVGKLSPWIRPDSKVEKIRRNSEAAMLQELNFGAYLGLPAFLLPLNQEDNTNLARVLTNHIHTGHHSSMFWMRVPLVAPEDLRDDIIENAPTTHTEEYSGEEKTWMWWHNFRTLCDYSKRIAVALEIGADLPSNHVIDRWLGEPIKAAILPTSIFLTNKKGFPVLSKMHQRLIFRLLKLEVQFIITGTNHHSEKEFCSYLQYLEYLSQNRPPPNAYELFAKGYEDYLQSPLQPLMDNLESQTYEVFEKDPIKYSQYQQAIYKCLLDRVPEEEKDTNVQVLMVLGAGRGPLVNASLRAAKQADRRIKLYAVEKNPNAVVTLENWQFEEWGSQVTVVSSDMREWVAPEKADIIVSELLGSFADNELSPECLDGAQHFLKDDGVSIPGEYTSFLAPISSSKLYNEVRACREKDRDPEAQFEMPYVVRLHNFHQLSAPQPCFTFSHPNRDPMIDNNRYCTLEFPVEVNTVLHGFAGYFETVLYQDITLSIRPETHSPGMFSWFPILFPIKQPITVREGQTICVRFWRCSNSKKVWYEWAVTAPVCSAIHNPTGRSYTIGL
T1 sequence (Q9BQA1 whole entry partner): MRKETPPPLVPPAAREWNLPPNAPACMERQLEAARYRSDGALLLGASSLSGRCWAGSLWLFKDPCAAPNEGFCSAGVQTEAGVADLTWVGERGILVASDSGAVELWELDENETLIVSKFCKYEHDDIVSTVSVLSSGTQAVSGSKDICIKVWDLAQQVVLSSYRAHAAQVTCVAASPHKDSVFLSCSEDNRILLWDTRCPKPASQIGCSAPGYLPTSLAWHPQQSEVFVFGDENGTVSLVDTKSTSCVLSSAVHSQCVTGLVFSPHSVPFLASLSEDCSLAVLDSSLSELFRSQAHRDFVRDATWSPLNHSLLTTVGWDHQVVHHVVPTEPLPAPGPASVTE

SMILES	EC50 [1]	EC50 [2]
C[C@@]1(CCc2ccc3cc(F)c(N)nc3c2)C[C@@H](n2ccc3c(N)ncnc32)[C@H](O)[C@@H]1O [Example 116, (1S,2R,3R,5R)-3-(2-(2-amino-3-fluoroquinolin-7-yl)ethyl)-5-(4-amino-7H-pyrrolo[2,3-d]pyrimidin-7-yl)-3-methylcyclopentane-1,2-diol]	2.4 nM	661 nM
Cc1nc(C)c2ccn([C@@H]3O[C@@H]4[C@H](Cc5ccc6cc(Br)c(N)nc6c5)CC[C@]4(O)[C@H]3O)c2n1 [Example 81, (2R,3R,3aS,6S,6aR)-6-((2-amino-3-bromoquinolin-7-yl)methyl)-2-(2,4-dimethyl-7H-pyrrolo[2,3-d]pyrimidin-7-yl)hexahydro-3aH-cyclopenta[b]furan-3,3a-diol]	0.7 nM	–
Nc1ccc2ccc(O[C@H]3CC[C@@]4(O)[C@@H]3O[C@@H](n3ccc5c(N)ncnc53)[C@@H]4O)cc2n1 [Example 104, (2R,3R,3aS,6S,6aR)-2-(4-amino-7H-pyrrolo[2,3-d]pyrimidin-7-yl)-6-((2-aminoquinolin-7-yl)oxy)hexahydro-2H-cyclopenta[b]furan-3,3a-diol]	3.8 nM	–
Cc1ncnc2c1ccn2[C@@H]1O[C@@H]2[C@H](Cc3ccc4cc(Br)c(N)nc4c3)OC[C@]2(O)[C@H]1O [Example 133, (2R,3R,3aS,6S,6aR)-6-((2-amino-3-bromoquinolin-7-yl)methyl)-2-(4-methyl-7H-pyrrolo[2,3-d]pyrimidin-7-yl)tetrahydrofuro[3,4-b]furan-3,3a(4H)-diol]	0.8 nM	–
C[C@@]1(O)[C@@H](COc2ccc3cccnc3c2)O[C@@H](n2ccc3c(N)ncnc32)[C@@H]1O [Example 99, (2R,3S,4R,5R)-5-(4-amino-7H-pyrrolo[2,3-d]pyrimidin-7-yl)-3-methyl-2-((quinolin-7-yloxy)methyl)tetrahydrofuran-3,4-diol]	1.7 nM	1880 nM
C[C@]1(COc2ccc3cccnc3c2)O[C@@H](n2ccc3c(N)ncnc32)[C@H](O)[C@@H]1O [Example 98, (2R,3S,4R,5R)-5-(4-amino-7H-pyrrolo[2,3-d]pyrimidin-7-yl)-2-methyl-2-((quinolin-7-yloxy)methyl)tetrahydrofuran-3,4-diol]	3.4 nM	2570 nM
CC(C)c1ncnc2c1ccn2[C@@H]1O[C@@H]2[C@H](Cc3ccc4cc(Br)c(N)nc4c3)CC[C@]2(O)[C@H]1O [Example 83, (2R,3R,3aS,6S,6aR)-6-((2-amino-3-bromoquinolin-7-yl)methyl)-2-(4-isopropyl-7H-pyrrolo[2,3-d]pyrimidin-7-yl)hexahydro-3aH-cyclopenta[b]furan-3,3a-diol]	1.2 nM	–
Cc1cn([C@@H]2O[C@@H]3[C@H](Cc4ccc5cc(F)c(N)nc5c4)CC[C@]3(O)[C@H]2O)c2ncnc(N)c12 [Example 62, (2R,3R,3aS,6S,6aR)-6-((2-amino-3-fluoroquinolin-7-yl)methyl)-2-(4-amino-5-methyl-7H-pyrrolo[2,3-d]pyrimidin-7-yl)hexahydro-3aH-cyclopenta[b]furan-3,3a-diol 2,2,2-trifluoroacetate]	0.5 nM	–
Nc1nc2cc(C[C@@H]3CC[C@@]4(O)[C@@H]3O[C@@H](n3ccc5c(N)nc(Cl)nc53)[C@@H]4O)ccc2cc1Cl [Example 47, (2R,3R,3aS,6S,6aR)-2-(4-amino-2-chloro-7H-pyrrolo[2,3-d]pyrimidin-7-yl)-6-[(2-amino-3-chloroquinolin-7-yl)methyl]hexahydro-3aH-cyclopenta[b]furan-3,3a-diol]	0.2 nM	–
Cc1cn([C@@H]2O[C@@H]3[C@H](Cc4ccc5cc(Br)c(N)nc5c4)CC[C@]3(O)[C@H]2O)c2ncnc(N)c12 [Example 70, (2R,3R,3aS,6S,6aR)-6-((2-amino-3-bromoquinolin-7-yl)methyl)-2-(4-amino-5-methyl-7H-pyrrolo[2,3-d]pyrimidin-7-yl)hexahydro-3aH-cyclopenta[b]furan-3,3a-diol 2,2,2-trifluoroacetate]	0.4 nM	–
Cc1nc(N)nc2c1ccn2[C@@H]1O[C@@H]2[C@@H](Oc3ccc4cc(Br)c(N)nc4c3)CC[C@]2(O)[C@H]1O [Example 114, (2R,3R,3aS,6S,6aR)-6-((2-amino-3-bromoquinolin-7-yl)oxy)-2-(2-amino-4-methyl-7H-pyrrolo[2,3-d]pyrimidin-7-yl)hexahydro-3aH-cyclopenta[b]furan-3,3a-diol]	1.4 nM	–
C[C@@]1(O)[C@@H](CCc2ccc3cc(Br)c(N)nc3c2)C[C@@H](n2ccc3c(N)ncnc32)[C@@H]1O [Example 103, (1R,2S,3R,5S)-5-(2-(2-amino-3-bromoquinolin-7-yl)ethyl)-3-(4-amino-7H-pyrrolo[2,3-d]pyrimidin-7-yl)-1-methylcyclopentane-1,2-diol]	0.4 nM	40.7 nM
Nc1nc2cc(C[C@@H]3CC[C@@]4(O)[C@@H]3O[C@@H](n3cc(F)c5c(N)ncnc53)[C@@H]4O)ccc2cc1F [Example 59, (2R,3R,3aS,6S,6aR)-6-((2-amino-3-fluoroquinolin-7-yl)methyl)-2-(4-amino-5-fluoro-7H-pyrrolo[2,3-d]pyrimidin-7-yl)hexahydro-3aH-cyclopenta[b]furan-3,3a-diol]	0.6 nM	–
Nc1nc2cc(C[C@@H]3CC[C@@]4(O)[C@@H]3C[C@@H](n3cc(F)c5c(N)ncnc53)[C@@H]4O)ccc2cc1Br [Example 42, (1S,2R,3aR,4S,6aR)-4-((2-amino-3-bromoquinolin-7-yl)methyl)-2-(4-amino-5-fluoro-7H-pyrrolo[2,3-d]pyrimidin-7-yl)hexahydropentalene-1,6a(1H)-diol]	0.3 nM	–
C[C@]1(COc2ccc3cc(Br)c(N)nc3c2)C[C@@H](n2ccc3c(N)ncnc32)[C@H](O)[C@@H]1O [Example 100, (1S,2R,3R,5R)-3-(((2-amino-3-bromoquinolin-7-yl)oxy)methyl)-5-(4-amino-7H-pyrrolo[2,3-d]pyrimidin-7-yl)-3-methylcyclopentane-1,2-diol]	0.6 nM	32 nM
Nc1nc2cc(O[C@H]3CC[C@@]4(O)[C@@H]3O[C@@H](n3cc(F)c5c(N)ncnc53)[C@@H]4O)ccc2cc1Br [Example 56, (2R,3R,3aS,6S,6aR)-6-((2-amino-3-bromoquinolin-7-yl)oxy)-2-(4-amino-5-fluoro-7H-pyrrolo[2,3-d]pyrimidin-7-yl)hexahydro-3aH-cyclopenta[b]furan-3,3a-diol]	0.2 nM	–
Cc1ncnc2c1c(F)cn2[C@@H]1O[C@@H]2[C@H](Cc3ccc4cc(Br)c(N)nc4c3)CC[C@]2(O)[C@H]1O [Example 84, (2R,3R,3aS,6S,6aR)-6-((2-amino-3-bromoquinolin-7-yl)methyl)-2-(5-fluoro-4-methyl-7H-pyrrolo[2,3-d]pyrimidin-7-yl)hexahydro-3aH-cyclopenta[b]furan-3,3a-diol]	0.6 nM	–
Cc1cn([C@@H]2C[C@@H]3[C@H](Cc4cc(F)c5cc(F)c(N)nc5c4)CC[C@]3(O)[C@H]2O)c2ncnc(N)c12 [Example 35, (1S,2R,3aR,4S,6aR)-4-[(2-amino-3,5-difluoroquinolin-7-yl)methyl]-2-(4-amino-5-methyl-7H-pyrrolo[2,3-d]pyrimidin-7-yl)hexahydropentalene-1,6a(1H)-diol]	0.5 nM	–
C[C@]1(COc2ccc3cc(Br)c(N)nc3c2)C[C@@H](n2ccc3c(N)ncnc32)[C@H](O)[C@]1(C)O [Example 111, (1R,2S,3R,5R)-5-(((2-amino-3-bromoquinolin-7-yl)oxy)methyl)-3-(4-amino-7H-pyrrolo[2,3-d]pyrimidin-7-yl)-1,5-dimethylcyclopentane-1,2-diol]	30.6 nM	2660 nM
